From US12692262B2, “Substituted ureas as orexin receptor agonists” (Merck Sharp & Dohme LLC, priority 2020, dated 2026)

Biological target: T1, human OX2R (Homo sapiens, UniProt O43614)
T1 construct: expressed in transfected cells; host or cells: CHO (Chinese hamster ovary) cells grown under G418 selection
T1 sequence (O43614 1-444): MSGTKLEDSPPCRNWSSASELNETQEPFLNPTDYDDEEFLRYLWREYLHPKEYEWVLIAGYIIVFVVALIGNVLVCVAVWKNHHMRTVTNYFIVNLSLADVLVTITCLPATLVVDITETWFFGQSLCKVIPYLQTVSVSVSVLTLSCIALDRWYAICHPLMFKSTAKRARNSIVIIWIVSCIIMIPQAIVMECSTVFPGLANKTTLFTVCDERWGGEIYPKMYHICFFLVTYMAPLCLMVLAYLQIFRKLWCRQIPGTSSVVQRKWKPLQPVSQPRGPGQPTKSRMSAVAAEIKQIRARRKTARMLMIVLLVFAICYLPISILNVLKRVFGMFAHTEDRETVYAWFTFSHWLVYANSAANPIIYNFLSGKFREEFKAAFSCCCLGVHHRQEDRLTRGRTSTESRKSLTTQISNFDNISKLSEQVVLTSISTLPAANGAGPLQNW
Assay: IPOne (IP-1 accumulation) assay in CHO cells expressing human OX2R
Format: cell-based
Conditions: for EC50: CHO cells expressing human OX2R, IP-One assay, 2 h incubation, four parameter logistic fit, read-out: OX2R Potency, EC50; for % of maximum agonist effect (relative to Orexin A): percent effect vs mean max effect of a reference compound at 1 uM (100% activity vs Orexin A), human OX2R
Source text: The utility of the compounds in accordance with the present invention as orexin receptor OX1R and/or OX2R agonists may be readily determined without undue experimentation by methodology well known in the art. Both the OX1R and/or OX2R G-coupled protein receptors (GPCRs) couple through the Gαq signaling pathway, which ultimately promotes calcium mobilization via inositol triphosphate (IP3) production. […] The utility of the compounds in accordance with the present invention as orexin receptor OX1R and/or OX2R agonists may be determined utilizing this assay.
In a typical experiment, the OX1 and OX2 receptor agonist activity is determined in accordance with the following general experimental method. Chinese hamster ovary (CHO) cells expressing human OX1R and/or the human OX2R were grown in Iscove's modified DMEM containing glutaMAX™, 1% G418, 100 U/mL penicillin, 100 μg/mL streptomycin and 10% heat-inactivated qualified fetal bovine serum (FBS). […] During this incubation, IP-one detection reagents were prepared (38:1:1 lysis buffer:D2:AB-cryptate reagents).
For each compound, data were fit to a four parameter logistic fit (ActivityBase software) and the EC50 was reported as the inflection point of the resulting curve. […] The intrinsic orexin receptor agonist activity of a compound which may be used in the present invention may be determined by these assays.

EC50 [nM] | % of maximum agonist effect (relative to Orexin A) [%] | % of maximum agonist effect (relative to Orexin A) (1 µM) [%] | SMILES
76.9 | 99.4 | – | CCN(C(=O)N[C@@H](CCC(F)(F)F)C(F)(F)F)C(c1cncc(-c2cn3ccnc3c(OC)n2)c1)C(F)(F)F (stereo partly drawn) [Example 10-22, 1-ethyl-3-((S)-1,1,1,5,5,5-hexafluoropentan-2-yl)-1-(2,2,2-trifluoro-1-(5-(8-methoxyimidazo[1,2-a]pyrazin-6-yl)pyridin-3-yl)ethyl)urea]
47.8 | 96.1 | – | CC[C@H](CCC(F)(F)F)NC(=O)N(CC)[C@H](C)c1ccc(OC)c(-c2cnc3[nH]ccc3c2)c1 [Example 8-5, 1-ethyl-1-((R)-1-(4-methoxy-3-(1H-pyrrolo[2,3-b]pyridin-5-yl)phenyl)ethyl)-3-((R)-6,6,6-trifluorohexan-3-yl)urea]
396 | 100.4 | – | CCC(CCC(F)(F)F)NC(=O)N(CC)[C@H](C)c1cccc(-c2cn3ccnc3cc2OC)c1 (stereo partly drawn) [Example 7-2, 1-ethyl-1-((R)-1-(3-(7-methoxyimidazo[1,2-a]pyridin-6-yl)phenyl)ethyl)-3-(6,6,6-trifluorohexan-3-yl)urea]

The remaining lines, values behind:

SMILES | EC50 [nM] | % of maximum agonist effect (relative to Orexin A) [%] | % of maximum agonist effect (relative to Orexin A) (1 µM) [%]
C=CC[C@H](NC(=O)N(CC)C(c1cc(-c2cn3ccnc3c(OC)n2)c(OC)cn1)C(F)(F)F)C(F)(F)F (mixture of isomers) [Example 5-1, 1-ethyl-1-(2,2,2-trifluoro-1-(5-methoxy-4-(8-methoxyimidazo[1,2-a]pyrazin-6-yl)pyridin-2-yl)ethyl)-3-((S)-1,1,1-trifluoropent-4-en-2-yl)urea] | 4.8 | 100.4 | –
CC[C@H](CC(F)(F)F)NC(=O)N(CC)C(c1cc(-c2cn3ccnc3c(OC)n2)c(OC)cn1)C(F)(F)F (stereo partly drawn) [Example 6-2, 1-ethyl-1-(2,2,2-trifluoro-1-(5-methoxy-4-(8-methoxyimidazo[1,2-a]pyrazin-6-yl)pyridin-2-yl)ethyl)-3-((R)-1,1,1-trifluoropentan-3-yl)urea] | 8.1 | 100.1 | –
CCN(C(=O)N[C@@H](C=C(C)C)C(F)(F)F)[C@H](C)c1cccc(-c2cn3ccnc3c(OC)n2)c1 [Example 5-2, 1-ethyl-1-((R)-1-(3-(8-methoxyimidazo[1,2-a]pyrazin-6-yl)phenyl)ethyl)-3-((S)-1,1,1-trifluoro-4-methylpent-3-en-2-yl)urea] | – | – | 99.1
CCN(C(=O)N[C@@H](CCC(F)(F)F)C(F)(F)F)C(c1cnc(OC)c(-c2cn3ccnc3c(OC)n2)c1)C(F)(F)F (stereo partly drawn) [Example 2-50, 1-ethyl-3-((S)-1,1,1,5,5,5-hexafluoropentan-2-yl)-1-(2,2,2-trifluoro-1-(6-methoxy-5-(8-methoxyimidazo[1,2-a]pyrazin-6-yl)pyridin-3-yl)ethyl)urea] | 1.4 | 100.5 | –
CCN(C(=O)N[C@@H](CCC(F)(F)F)C(F)(F)F)C(C)c1cnnc(-c2cn3ccnc3c(OC)n2)c1 (stereo partly drawn) [Example 2-64, 1-ethyl-3-((S)-1,1,1,5,5,5-hexafluoropentan-2-yl)-1-(1-(6-(8-methoxyimidazo[1,2-a]pyrazin-6-yl)pyridazin-4-yl)ethyl)urea] | 2870 | 81.2 | –
CCN(C(=O)N[C@@H](CCS(C)(=O)=O)C(F)(F)F)[C@@H](c1cc(-c2cn3ccnc3c(OC)n2)c(OC)cn1)C(F)(F)F [Example 2-36, 1-ethyl-1-((S)-2,2,2-trifluoro-1-(5-methoxy-4-(8-methoxyimidazo[1,2-a]pyrazin-6-yl)pyridin-2-yl)ethyl)-3-((S)-1,1,1-trifluoro-4-(methylsulfonyl)butan-2-yl)urea] | 0.7 | 100.5 | –
CCN(C(=O)N[C@@H]1CC[C@H](C(F)(F)F)C1)[C@H](C)c1cccc(-c2cn3ccnc3c(OC)n2)c1 [Example 1-3, 1-ethyl-1-((R)-1-(3-(8-methoxyimidazo[1,2-a]pyrazin-6-yl)phenyl)ethyl)-3-((1R,3S)-3-(trifluoromethyl)cyclopentyl)urea] | 6.5 | 99.9 | –
